Test results: US8865714B2, “Piperazine compound capable of inhibiting prostaglandin D synthase” (Taiho Pharmaceutical Co., Ltd., priority 2009, dated 2014)

How the values were obtained:
C57BL/10-mdx (mdx) mice = test: Forelimb grip strength test in mice; type: in vivo; conditions: 30 mg/kg orally once a day for 4 weeks, * = significance level below 0.05 vs control group
Procedure: 4-week-old male C57BL/10-mdx (mdx) mice were used as a disease group, and 4-week-old male C57BL/10Sn (wild) mice were used as a normal group in the test. A acclimation period was provided after the arrival of the mice. An initial value of each individual was measured at 5 weeks of age, and 10 mice were assigned to each group. From the following day, the test compound (30 mg/kg) was orally administered to the mice once a day consecutively for 4 weeks. The animals in the control group only received the vehicle orally. The forelimb grip strength was measured at 4 weeks after the start of the administration. A value obtained by dividing the average of 5 forelimb grip strength measurement values (kg) determined using a small animal grip strength measurement device (GPM-100M, Melquest) by the body weight (kg) was used as the evaluation index (reference literature: Muscle Nerve., 35, 43-48 (2007)).
9 or more cases were obtained from each group to determine whether expression of forelimb grip strength enhancing action occurred. First, a significant decrease in the value of the control group compared to that of the normal group was confirmed, and then the value of the control group was compared with the value of the compound-administered group. When the significance level was below 0.05, the action was considered to be present and indicated by symbols (#) and (*) in the table.

[1] = test system: eosinophil infiltration in guinea pigs with antigen-induced rhinitis; test: Eosinophil infiltration inhibiting action in guinea pigs with antigen-induced rhinitis; type: in vivo; conditions: 30 mg/kg orally 3 times; washing 6 hours after induction; * = significance level below 0.05 vs control group
Procedure: (§1) A physiological saline solution containing 1 mg/mL of ovalbumin was subcutaneously injected into the back of 5-week-old male Std:Hartley guinea pigs in an amount of 1 mL/body for active sensitization (initial sensitization). One week and two weeks after initial sensitization, 20 μL of a physiological saline solution containing 10 mg/mL of ovalbumin was instilled into each nasal cavity using a micropipette (sensitization by nasal administration). Three weeks after initial sensitization, 20 μL of a physiological saline solution containing 10 mg/mL of ovalbumin was instilled into each nasal cavity using a micropipette to induce a rhinitis reaction.
The test compound (30 mg/kg) was orally administered 3 times in total (2 times at sensitization by nasal administrations and 1 time at the induction of a rhinitis reaction), 1 hour before sensitization or induction. The animals in the control group only received the medium orally.
6 hours after the induction of a rhinitis reaction, the nasal cavities were washed under pentobarbital sodium anesthesia. A nasal cavity washing liquid (phosphate buffered saline containing 3 mM of EDTA and 10 μM of indomethacin) was flushed using a Peristaltic Pump (Gilson, Inc.) in the direction from the trachea to the upper respiratory tract at the flow rate of 1 mL/min, and the liquid flowing out from the nasal cavities was collected for 3 minutes. The collected liquid was filtered through a cell strainer (40 μm), and centrifuged at 4° C., 300×g, for 10 minutes. Subsequently, the supernatant was removed by suction. 250 μL of nasal cavity washing liquid was added to the cell pellet to form a suspension. The total number of cells (×10^5 cells) in the cell suspension was determined using an automated blood cell counter (F-820, Sysmex Corporation).
A cell smear was prepared using a centrifugal device to collect cells (Cytospin-3, Shandon). After the cells were stained using a cell stain solution, the number of monocytes, the number of eosinophils, and the number of neutrophils were counted to obtain 300 cells in total by observation under a microscope (200-times magnification). The component ratio of each cell was calculated, and the number of eosinophils in the nasal cavity washing liquid was determined by the following formula. Number of eosinophils([…])=(Eosinophil count÷total count(300))×total number of cells
The rate of decrease in the number of eosinophils in the nasal cavity washing liquid was regarded as the eosinophil infiltration inhibition rate, and determined by the following formula. […] Inhibition rate(%)={(Number of eosinophils in the control group−number of eosinophils in the compound-administered group)÷(number of eosinophils in the control group−number of eosinophils in the normal group)}×100
16 cases were obtained from each group, and the number of eosinophils in the nasal cavity washing fluid was compared between the control group and each compound-administered group. Note that when the significance level was below 0.05, the eosinophil infiltration inhibiting action was considered to be present and indicated by a symbol (*) in the table.

[2] = test system: PGD2 production in the nasal cavities of guinea pigs with antigen-induced rhinitis; test: PGD2 production inhibiting action in the nasal cavities of guinea pigs with antigen-induced rhinitis; type: in vivo; conditions: for Rate of decrease in PGD2 concentration in the nasal cavity washing fluid (%): 30 mg/kg orally 1 hour before induction, washing 30 minutes after induction, * = significance level below 0.05 vs control group
Procedure: as §1
The test compound (30 mg/kg) was orally administered 1 hour before induction of a rhinitis reaction. The animals in the control group only received the medium orally.
30 minutes after the induction of a rhinitis reaction, the nasal cavities were washed under pentobarbital sodium anesthesia. A nasal cavity washing liquid (phosphate buffered saline containing 3 mM of EDTA and 10 μM of indomethacin) was flushed using a Peristaltic Pump (Gilson, Inc.) in the direction from the trachea to the upper respiratory tract at the flow rate of 1 mL/min, and the liquid flowing out from the nasal cavities was collected for 1 minute. The collected liquid was centrifuged to separate the supernatant as the nasal cavity washing fluid. The concentration of PGD2 in the nasal cavity washing fluid was determined using an EIA kit (Prostaglandin D2-MOX EIA kit, Cayman Chemical).
The rate of decrease in PGD2 in the nasal cavity washing fluid was calculated by the following formula. […] Rate of decrease in PGD2 in the nasal cavity washing fluid(%)={(PGD2 concentration in the control group−PGD2 concentration in the compound-administered group)÷(PGD2 concentration in the control group−PGD2 concentration in the normal group)}×100 […]

human H-PGDS = human H-PGDS (Homo sapiens (Human), UniProt O60760); test: Hematopoietic prostaglandin D synthase (H-PGDS) inhibiting action; type: biochemical; conditions: human H-PGDS, [14C] prostaglandin H2 10 μM
Procedure: More specifically, the reaction mixture (49 μL) containing 100 mM Tris-HCl (pH 8.0), 1 mM reduced glutathione, 0.1 mg/mL γ-globulin, and human H-PGDS (q.s.), and a compound (final concentration: 0.01-100 μM) was preincubated at 25° C. for 5 minutes. Note that a DMSO solution (final concentration: 1%) was added to the solvent control group. Subsequently, 1 μL of [14C] prostaglandin H2 (final concentration: 10 μM) was added to start the reaction. One minute after the start of the reaction, 250 μL of a reaction stopper solution (diethylether/methanol/1 M citric acid (30/4/1) at a temperature of −20° C. was added to stop the reaction. After the reaction was stopped, 50 μL of the upper layer portion (organic solvent phase) was applied to a TLC plate and developed at −20° C. for 45 minutes (developing solvent: diethylether/methanol/acetic acid (90/2/1)). After drying the TLC plate, the TLC plate was exposed to an imaging plate for 1 to 24 hours, and the radioactivity corresponding to prostaglandin D2 (PGD2) was analyzed using an image analyzer (produced by Fujifilm Corporation).

Sequence of human H-PGDS (O60760 whole entry): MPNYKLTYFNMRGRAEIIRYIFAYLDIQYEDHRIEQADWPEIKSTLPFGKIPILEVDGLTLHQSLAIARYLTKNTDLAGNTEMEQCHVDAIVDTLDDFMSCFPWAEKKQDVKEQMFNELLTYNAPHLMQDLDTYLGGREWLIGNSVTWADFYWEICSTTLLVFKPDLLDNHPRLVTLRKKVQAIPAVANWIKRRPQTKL

H-PGDS inhibition rate (%) (human H-PGDS; compound at 0.1 μM, relative to the control group) | IC50 (human H-PGDS; read-out: IC50) [nM] | Compound | Forelimb grip strength measurement value/body weight (kg/kg) (C57BL/10-mdx (mdx) mice) | Eosinophil infiltration inhibition rate (%) [1] | Rate of decrease in PGD2 concentration in the nasal cavity washing fluid (%) [2] | PGD2 production inhibiting action (in words) ([2]; 30 mg/kg orally, summary of Table 2)
 |  | COc1ccc2nc(NC(=O)N3CCN(C(=O)c4cccc(F)c4)CC3)sc2c1 [Reference Example 16, 4-(3-fluorobenzoyl)piperazine-1-carboxylic acid-(6-methoxybenzothiazol-2-yl)amide] | 4.29 ± 0.24 kg/kg | −108.0* % |  | 
 |  | CON(C)C(=O)c1[nH]c(C)c(-c2nc3ccc(C(=O)c4ccccc4)cc3[nH]2)c1C [Reference Example 19, N-methoxy-N-methyl-4-(5-benzoylbenzimidazol-2-yl)-3,5-dimethylpyrrol-2-carboxamide] |  |  | 77.0* % | have the action
 |  | O=C(Nc1nc2ccc(Br)cc2s1)N1CCN(C(=O)c2cccc(F)c2)CC1 [Reference Example 13, 4-(3-fluorobenzoyl)-piperazine-1-carboxylic acid-(6-bromobenzothiazol-2-yl)amide] | 4.37 ± 0.15 kg/kg | 34.2% |  | 
 |  | O=C(Nc1nc2ccc(Cl)cc2s1)N1CCN(C(=O)c2cccc(F)c2)CC1 [Reference Example 17, 4-(3-fluorobenzoyl)piperazine-1-carboxylic acid-(6-chlorobenzothiazol-2-yl)amide] | 4.48 ± 0.15 kg/kg | 16.6% |  | 
 |  | Cc1cc2nc(NC(=O)N3CCN(C(=O)c4cccc(F)c4)CC3)sc2cc1C [Reference Example 14, 4-(3-fluorobenzoyl)-piperazine-1-carboxylic acid-(5,6-dimethylbenzothiazol-2-yl)amide] | 4.26 ± 0.22 kg/kg | −25.1% |  | 
54.2 | 76 | 4-((1-methylpyrrol-2-yl)-carbonyl)-N-(4-(4-morpholin-1-yl-carbonylpiperidin-1-yl)-phenyl)-1-piperazinecarboxamide [Example 3] | 4.80 ± 0.09* kg/kg | 49.9* % | 77.5* % | 
 |  | Cc1ccc2nc(NC(=O)N3CCN(C(=O)c4cccc(F)c4)CC3)sc2c1 [Reference Example 15, 4-(3-fluorobenzoyl)piperazine-1-carboxylic acid-(6-methylbenzothiazol-2-yl)amide] | 4.20 ± 0.20 kg/kg | −133.3* % |  | 
